Data published in the NIST ThermoML archive (doi:10.1021/je8004613).

Legend:
[1] = 101.33 kPa, Liquid; for speed of sound: Pulse-echo method; for mass density: Vibrating tube method
[2] = excess molar enthalpy (molar enthalpy of mixing); xn = mol fraction of the nth substance listed; conditions: 298.15 K, 101 kPa, Liquid

CCCCCCCC [octane]
[1]
Conditions | mass density [kg/m3] | speed of sound [m/s]
288.15 K | 706.58 | 1213.6
293.15 K | 702.57 | 1193
298.15 K | 698.55 | 1171.9
303.15 K | 694.48 | 1151
308.15 K | 690.42 | 1130.3

CCCCCCCC [octane] + CCCCO
[2]
Conditions | excess molar enthalpy [kcal/mol]
x2 = 0.03632 | 0.0772
x2 = 0.0645 | 0.102
x2 = 0.1182 | 0.128
x2 = 0.1568 | 0.137
x2 = 0.2031 | 0.152
x2 = 0.2488 | 0.158
x2 = 0.299 | 0.163
x2 = 0.345 | 0.164
x2 = 0.4028 | 0.163
x2 = 0.4499 | 0.16
x2 = 0.5029 | 0.152
x2 = 0.6034 | 0.134
x2 = 0.6988 | 0.112
x2 = 0.7979 | 0.0817
x2 = 0.9005 | 0.0435
x2 = 0.9493 | 0.0225
